“Also recorded” adds a separate entry of the source. Like-named read-outs stand apart in the source and are kept apart here. Square brackets hold non-standard residues; d marks the D form. Peptide text beside a SMILES is read from it. Orn(N5-OH,N5-Ac) = CC(=O)N(O)CCC[C@H](N)C(=O)O
How the values were obtained:
[1] = target: T1, YxeB (Bc_0383) (Bacillus cereus, UniProt Q81IK3); type: binding, B. cereus ATCC 14579; conditions: for Kd: pH 7
T1 sequence (Q81IK3 20-306): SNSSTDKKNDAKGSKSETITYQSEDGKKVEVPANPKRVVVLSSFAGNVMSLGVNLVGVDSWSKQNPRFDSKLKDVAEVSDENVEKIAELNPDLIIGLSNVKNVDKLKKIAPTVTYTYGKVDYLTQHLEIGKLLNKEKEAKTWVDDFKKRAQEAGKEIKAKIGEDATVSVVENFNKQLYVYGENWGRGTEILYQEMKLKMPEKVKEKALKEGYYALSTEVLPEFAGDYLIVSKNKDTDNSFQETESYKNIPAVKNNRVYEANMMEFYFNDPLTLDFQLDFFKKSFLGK

[2] = target: T2, FpuA (Bc_4528) (Bacillus cereus, UniProt Q817L3); conditions: pH 6.8
T2 sequence (Q817L3 19-324): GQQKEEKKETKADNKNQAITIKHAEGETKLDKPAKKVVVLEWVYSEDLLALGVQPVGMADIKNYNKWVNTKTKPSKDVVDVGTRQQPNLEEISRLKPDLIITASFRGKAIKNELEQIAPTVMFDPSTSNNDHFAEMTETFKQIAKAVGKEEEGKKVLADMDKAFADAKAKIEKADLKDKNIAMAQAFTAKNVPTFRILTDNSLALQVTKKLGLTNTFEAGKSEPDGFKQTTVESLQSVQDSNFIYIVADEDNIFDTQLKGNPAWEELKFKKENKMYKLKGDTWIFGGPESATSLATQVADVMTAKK

[3] = target: T2, FpuA (Bc_4528); type: binding, B. cereus ATCC 14579
[4] = tested on: B. cereus ATCC 14579; type: cell-based, Bacillus cereus
[5] = tested on: B. cereus ATCC 14579; type: cell-based, Bacillus cereus; remark: listed apart in the source
[6] = target: T3, FatB (Bc_5106) (Bacillus cereus, UniProt Q815N5); conditions: pH 6.8
T3 sequence (Q815N5 24-338): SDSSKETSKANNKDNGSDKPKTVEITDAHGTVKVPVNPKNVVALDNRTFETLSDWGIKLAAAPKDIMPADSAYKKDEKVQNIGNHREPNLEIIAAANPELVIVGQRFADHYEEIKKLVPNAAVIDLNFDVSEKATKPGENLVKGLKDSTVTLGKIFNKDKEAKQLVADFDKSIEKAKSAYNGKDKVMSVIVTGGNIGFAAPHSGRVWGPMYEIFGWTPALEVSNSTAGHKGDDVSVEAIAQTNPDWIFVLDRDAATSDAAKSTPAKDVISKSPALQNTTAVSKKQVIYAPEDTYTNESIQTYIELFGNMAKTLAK

[7] = target: T3, FatB (Bc_5106); type: binding, B. cereus ATCC 14579
[8] = target: T4, FeuA (Bc_3738) (Bacillus cereus, UniProt Q81A53); experiment: biochemical; type: binding, B. cereus ATCC 14579
T4 sequence (Q81A53 22-321): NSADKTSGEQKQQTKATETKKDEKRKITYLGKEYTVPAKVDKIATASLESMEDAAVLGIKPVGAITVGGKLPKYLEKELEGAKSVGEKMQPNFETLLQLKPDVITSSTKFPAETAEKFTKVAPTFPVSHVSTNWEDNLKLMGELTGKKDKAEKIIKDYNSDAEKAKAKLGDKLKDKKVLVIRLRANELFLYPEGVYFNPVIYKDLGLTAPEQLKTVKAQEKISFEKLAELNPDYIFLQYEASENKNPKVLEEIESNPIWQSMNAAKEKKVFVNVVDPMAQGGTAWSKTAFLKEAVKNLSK

CC(=O)N([O-])CCC[C@@H]1NC(=O)CNC(=O)CNC(=O)CNC(=O)[C@H](CCCN([O-])C(C)=O)NC(=O)[C@H](CCCN([O-])C(C)=O)NC1=O.[Fe+3] [Fch, ferrichrome] (cyclo(GGG[Orn(N5-OH,N5-Ac)][Orn(N5-OH,N5-Ac)][Orn(N5-OH,N5-Ac)])) was tested, and the “change of YxeB fluorescence on binding” value [1] was “increase of SBP fluorescence”, the “noncovalent complex with FpuA by ESI-MS (Molecular weight Measured)” value (“noncovalent complex with FpuA by ESI-MS” for short) [2] was “no protein-ligand complexes were detected” and the “binding of the aposiderophore to FpuA” value [3] was “did not bind”. The “unspecific protein emission quenching of FpuA” value [3] was 10-20%.

With O=C(O)c1ccc(O)c(O)c1 [3,4-DHB, 3,4-dihydroxybenzoic acid] the “effect on uptake of radioactive ferric PB” value [4] was “inhibited”, the “effect on uptake of radioactive ferric PB^ν” value [4] was “inhibited” and the “noncovalent complex with FpuA by ESI-MS” value [2] was “not observed”. For the same molecule, the Km [5] was 400 ± 100 nM, the vmax [5] was 2.3 ± 0.1 pmol Fe mL^-1 min^-1 and the “ligand recognition by FpuA” value [3] was “not specifically quenched”.

In the case of ferric citrate, the “noncovalent complex with FatB by ESI-MS (Molecular weight Measured)” value [6] is reported as “no protein-ligand complexes were detected”, the “noncovalent complex with FpuA by ESI-MS” value [2] is reported as “no protein-ligand complexes were detected” and the “ligand recognition by FpuA” value [3] is reported as “no recognition”. For the same molecule, the “ligand recognition by FatB” value [7] was “no recognition”.

For CC(=O)N(O)CCCNC(=O)CC(O)(CC(=O)NCCCN(O)C(C)=O)C(=O)O [Sch, schizokinen], the “ligand recognition by FpuA” value [3] was “binding incompatibility”.

O=C(CC(O)(CC(=O)NCCCCNCCCNC(=O)c1ccc(O)c(O)c1)C(=O)O)NCCCCNCCCNC(=O)c1ccc(O)c(O)c1 [PB, petrobactin] was tested, and the “noncovalent complex with FatB by ESI-MS (Molecular weight Measured)” value [6] was “not observed”, the “effect on incorporation of radioactive ferric Ent” value [4] was “only slightly affected” and the “effect on uptake of radioactive ferric 3,4-DHB” value [4] was “inhibited”. For the same molecule, the “effect on uptake of radioactive ferric PB” value [4] was “inhibited”, the “effect on uptake of radioactive ferric PB^ν” value [4] was “inhibited” and the “noncovalent complex with FpuA by ESI-MS” value [2] was “not observed”. The Kd ([3]; pH 7) was 23 nM.

In the case of O=C(N[C@H]1COC(=O)[C@@H](NC(=O)c2cccc(O)c2O)COC(=O)[C@@H](NC(=O)c2cccc(O)c2O)COC1=O)c1cccc(O)c1O [Ent, enterobactin], the Kd [8] is reported as 36 nM.

CC(=O)N(O)CCCCCNC(=O)CCC(=O)N(O)CCCCCNC(=O)CCC(=O)N(O)CCCCCN.[Fe+3] [FeDFO] was tested, and the Kd [1] was 18 nM and the “effect on transport of ^55FeFch” value [4] was “inhibited”.

In the case of CC(=O)N(O)CCC[C@@H]1NC(=O)CNC(=O)CNC(=O)CNC(=O)[C@H](CCCN(O)C(C)=O)NC(=O)[C@H](CCCN(O)C(C)=O)NC1=O.[Fe+3] [FeFch] (cyclo(GGG[Orn(N5-OH,N5-Ac)][Orn(N5-OH,N5-Ac)][Orn(N5-OH,N5-Ac)])), the Kd [1] is reported as 30 nM and the “effect on uptake of ^55FeDFO” value [4] is reported as “inhibited”.

C[C@H]1OC(=O)[C@@H](NC(=O)CNC(=O)c2cccc(O)c2O)[C@@H](C)OC(=O)[C@@H](NC(=O)CNC(=O)c2cccc(O)c2O)[C@@H](C)OC(=O)[C@H]1NC(=O)CNC(=O)c1cccc(O)c1O [BB, bacillibactin] was tested, and the “ligand recognition by FatB” value [7] was “binding incompatibility; also recorded: no affinity” and the Kd ([8]; pH 7) was 59 nM.

In the case of CC(=O)N(O)CCCCCNC(=O)CCC(=O)N(O)CCCCCNC(=O)CCC(=O)N(O)CCCCCN [DFO, desferrioxamine B], the “change of YxeB fluorescence on binding” value [1] is reported as “increase of SBP fluorescence”.

Molecule FeEnt has a Kd ([8]; pH 7) of 12 nM.

From article PMC2782674 (Biochemistry, 2009)
